For this experiment, the system named is 6xHis mCherry F30-2xdBroccoli mRNA transcript (RNA, aptamer) GGGAGACCACAACGGUUUCCCUCUAGAAAUAAUUUUGUUUAACUUUAAGAAGGAGAUAUACCAUGUCUGGUUCUCAUCAUCAUCAUCAUCAUGGUAGCAGCGGCGAAAACCUGUAUUUUCAGUCCAUGGUGAGCAAGGGCGAGGAGGAUAACAUGGCCAUCAUCAAGGAGUUCAUGCGCUUCAAGGUGCACAUGGAGGGCUCCGUGAACGGCCACGAGUUCGAGAUCGAGGGCGAGGGCGAGGGCCGCCCCUACGAGGGCACCCAGACCGCCAAGCUGAAGGUGACCAAGGGUGGCCCCCUGCCCUUCGCCUGGGACAUCCUGUCCCCUCAGUUCAUGUACGGCUCCAAGGCCUACGUGAAGCACCCCGCCGACAUCCCCGACUACUUGAAGCUGUCCUUCCCCGAGGGCUUCAAGUGGGAGCGCGUGAUGAACUUCGAGGACGGCGGCGUGGUGACCGUGACCCAGGACUCCUCCCUGCAGGACGGCGAGUUCAUCUACAAGGUGAAGCUGCGCGGCACCAACUUCCCCUCCGACGGCCCCGUAAUGCAGAAGAAGACCAUGGGCUGGGAGGCCUCCUCCGAGCGGAUGUACCCCGAGGACGGCGCCCUGAAGGGCGAGAUCAAGCAGAGGCUGAAGCUGAAGGACGGCGGCCACUACGACGCUGAGGUCAAGACCACCUACAAGGCCAAGAAGCCCGUGCAGCUGCCCGGCGCCUACAACGUCAACAUCAAGUUGGACAUCACCUCCCACAACGAGGACUACACCAUCGUGGAACAGUACGAACGCGCCGAGGGCCGCCACUCCACCGGCGGCAUGGACGAGCUGUACAAGGGCAGCUAAAGGGUGAUCUUGCCAUGUGUAUGUGGGAGACGGUCGGGUCCAUCUGAGACGGUCGGGUCCAGAUAUUCGUAUCUGUCGAGUAGAGUGUGGGCUCAGAUGUCGAGUAGAGUGUGGGCUCCCACAUACUCUGAUGAUCCAGACGGUCGGGUCCAUCUGAGACGGUCGGGUCCAGAUAUUCGUAUCUGUCGAGUAGAGUGUGGGCUCAGAUGUCGAGUAGAGUGUGGGCUGGAUCAUUCAUGGCAACGGCUGCUAACAAAGCCCGAAAGGAAGCUGAGUUGGCUGCUGCCACCGCUGAGCAAUAACUAGCAUAACCCCUUGGGGCCUCUAAACGGGUCUUGAGGGGUUUUUUGCUGAAAGGAGGAACU
The experiment is described as follows: fluorescence activation (in-gel staining; plate reader). The settings on record: PURExpress reaction with 10 μM DFHBI, 80.4 mM sucrose, 30 °C; also in-gel DFHBI staining; qualitative.

From paper PMC8787815 (2022) come the findings set out here.

The structures appear in SMILES notation.

Consider `CC1=N/C(=C\c2cc(F)c(O)c(F)c2)C(=O)N1C`, for which the binding entry is recorded as “yes”.
